pKi: −log10 of the molar value.

These results are taken from US4539208A, “Combination of thienamycin-type antibiotics with dipeptidase inhibitors” (Merck & Co., Inc., priority 1981, dated 1985).

The first assay concerns Staphalococcus aureus. As to the kind of experiment: Systemic efficacy of thienamycin with co-administered inhibitor, Staphylococcus aureus infection in mouse. The format is in vivo. The following applies: coadministered with thienamycin.
Consider `C/C=C(\NC(=O)CC(C)C)C(=O)O` [Compound 7, Z-2-isovaleramido-2-butenoic acid], for which the “enhancement of systemic antibacterial activity of thienamycin” value was “enhanced approximately three-fold”.

Another assay deals with T1, renal dipeptidase (E.C.3.4.13.11) (Sus scrofa, UniProt P22412).
T1 construct: solubilized preparation of dipeptidase isolated from hog kidneys; from tissue; host or cells: hog (pig) kidney
T1 sequence (P22412 17-409): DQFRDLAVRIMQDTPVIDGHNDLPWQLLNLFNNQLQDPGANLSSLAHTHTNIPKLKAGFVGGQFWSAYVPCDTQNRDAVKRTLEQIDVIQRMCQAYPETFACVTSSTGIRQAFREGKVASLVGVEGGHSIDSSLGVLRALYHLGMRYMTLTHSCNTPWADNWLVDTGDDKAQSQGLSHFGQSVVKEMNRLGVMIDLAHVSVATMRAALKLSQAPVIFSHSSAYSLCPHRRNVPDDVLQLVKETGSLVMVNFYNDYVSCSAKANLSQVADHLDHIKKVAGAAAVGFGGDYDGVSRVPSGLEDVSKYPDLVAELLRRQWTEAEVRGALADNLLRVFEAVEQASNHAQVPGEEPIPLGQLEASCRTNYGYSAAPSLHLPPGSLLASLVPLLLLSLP
Briefly: Inhibition of GDP (glycyldehydrophenylalanine) hydrolysis by solubilized renal dipeptidase. The format is biochemical, hog (pig) kidney.
Conditions: not given
Here is the method: This measured the ability of compounds to inhibit hydrolysis of glycyldehydrophenylalanine (GDP) by a solubilized preparation of dipeptidase isolated from hog kidneys. The procedure is as follows: to a 1 ml. system containing 50 mM "MOPS" (3-(N-morpholino)propanesulfonic acid) buffer, pH 7.1, is added 5 μg of lyophilized enzyme, and the test compound at a final concentration of 0.1 mM. After a five minute incubation at 37° C., GDP is added to a final concentration of 0.05 mM. Incubation is continued for 10 minutes, at 37° C. and hydrolysis of GDP is measured by the change in optical density with time at 275 nm. Inhibition of the enzyme is gauged by comparison to a standard run containing no inhibitor and is expressed as the inhibitor binding constant, Ki.
A 1 ml. system of 50 mM "MOPS" buffer, pH 7.1, is used. To this is added 5 μg of the pig renal enzyme and an amount of the test compound to bring its final concentration to 0.1 mM. After a five minute incubation at 37° C., an amount of GDP is added to bring its final concentration to 0.05 mM. The system is again incubated for 10 minutes, at 37° C. Hydrolysis of GDP is measured by its change in optical density with time at 275 nm. Inhibition of the enzyme is gauged by comparison to a standard run containing no inhibitor and is presented as percent inhibition.
One may read the pKi as the negative decadic logarithm of the Ki, by convention in mol/L. For `CCCCC/C=C(\NC(=O)C1CC1(Cl)Cl)C(=O)O` (stereo not shown) [Compound 12], the pKi was 7.23.

`CN(C)C(=N)NCCCCC/C=C(\NC(=O)C1CC1(C)C)C(=O)O` (stereo not shown) [Compound 16]: the pKi is 6.05.

As to `CC1(C)CC1C(=O)N/C(=C\CC1CCCO1)C(=O)O` (stereo not shown) [Compound 65], the pKi was 6.41.

As to `C/C=C(\NC(=O)CCCCC)C(=O)O` [Compound 28, Z-2-hexanamido-2-butenoic acid], the pKi is 4.41.

Consider `CC(C)/C=C(\NC(=O)C1CC1(C)C)C(=O)O` (stereo not shown) [Compound 41], for which the pKi was 5.80.

With `CC1(C)CC1C(=O)N/C(=C\CCC(=O)O)C(=O)O` (stereo not shown) [Compound 51], the pKi is 6.84.

Molecule `C/C=C(\NC(=O)CCCCCl)C(=O)O` [Compound 36, Z-2-(5-chlorovaleramido)-2-butenoic acid] showed a pKi of 4.70.

For the molecule `CCCCCC/C=C(\NC(=O)C1CC1(C)C)C(=O)O` (stereo not shown) [Compound 56], the pKi is 6.83.

As to `CC1(C)CC1C(=O)N/C(=C\Cc1ccccc1)C(=O)O` (stereo not shown) [Compound 59], the pKi is 6.36.

For the molecule `CCCCCCC/C=C(\NC(=O)C1CC1(C)C)C(=O)O` (stereo not shown) [Compound 57], the pKi is 7.04.

Take `C/C=C(\NC(=O)C1CC1)C(=O)O` [Compound 10, Z-2-cyclopropylcarboxamido-2-butenoic acid]: the pKi was 5.05.

The same assay, now with this note: 10^-4 M inhibitor; GDP 0.05 mM; pH 7.1; 37° C.
The term % Inhibition denotes the drop in the measured response relative to a control, in per cent. For the molecule `CC/C=C(\NC(=O)C1CC1(C)C)C(=O)O` (stereo not shown) [Compound 1], the “% Inhibition at 10^-4 M” value is 98%.

One may read the inhibition as the percentage by which the read-out fell short of the control. A lower inhibition goes with a response near the control. `C/C=C(\NC(=O)C1CC1C)C(=O)O` (stereo not shown) [Compound 3] yielded an inhibition at 100 µM of 92%.

In turn, `CCCCCCCCCC/C=C(\NC(=O)C1CC1(C)C)C(=O)O` (stereo not shown) [Compound 58] displayed an inhibition at 100 µM of 96%.

In turn, `C/C=C(\NC(=O)CC(C)(C)C)C(=O)O` [Compound 18, Z-2-t-butylacetamido-2-butenoic acid] returned an inhibition at 100 µM of 75%.

`CCCC/C=C(\NC(=O)C1CC1(C)C)C(=O)O` (stereo not shown) [Compound 49] came in with an inhibition at 100 µM of 100%.

With `C/C=C(\NC(=O)CC(C)CC(C)(C)C)C(=O)O` (stereo not shown) [Compound 5], the inhibition at 100 µM was 81%.

`O=C(O)CC/C=C(\NC(=O)C1CC1)C(=O)O` [Compound 33] showed an inhibition at 100 µM of 90%.

For the molecule `C/C=C(\NC(=O)C1CC1(CC)CC)C(=O)O` (stereo not shown) [Compound 42], testing at 100 µM gave an inhibition of 98%.

In turn, `CC/C=C(\NC(=O)CC(C)C)C(=O)O` [Compound 4] showed an inhibition at 100 µM of 87%.

The molecule `C/C=C(\NC(=O)CC(C)C)C(=O)O` [Compound 7, Z-2-isovaleramido-2-butenoic acid] returned an inhibition at 100 µM of 91%.

The molecule `COCC/C=C(\NC(=O)C1CC1(C)C)C(=O)O` (stereo not shown) [Compound 61] yielded an inhibition at 100 µM of 98%.

As to `CC1(C)CC1C(=O)N/C(=C\c1ccccc1)C(=O)O` (stereo not shown) [Compound 46], at 100 µM the inhibition was 100%.

`C/C=C(\NC(=O)C(C)C)C(=O)O` [Compound 32] returned an inhibition at 100 µM of 31%.

Consider `C/C=C(\NC(=O)CCCCC(C)C)C(=O)O` [Compound 25, Z-2-(6-methylheptanamido)-2-butenoic acid], for which the inhibition at 100 µM stood at 57%.

Regarding `C/C=C(\NC(=O)CCCCCBr)C(=O)O` [Compound 35], 100 µM produced 70% inhibition.

With `CC1(C)CC1C(=O)N/C(=C\CCCC(=O)O)C(=O)O` (racemic) [Compound 64], testing at 100 µM gave an inhibition of 99%.

On to `C/C=C(\NC(=O)C1CC1(C)C)C(=O)O` (racemic) [Compound 2, Z-2-(2,2-dimethylcyclopropanecarboxamido)-2-butenoic acid], for which the inhibition at 100 µM amounted to 98%.

In the case of `C/C=C(\NC(=O)CCCCC)C(=O)O` [Compound 28, Z-2-hexanamido-2-butenoic acid], at 100 µM the inhibition was 54%.

For `CC1(C)CC1C(=O)N/C(=C\CCS(C)(=O)=O)C(=O)O` (stereo not shown) [Compound 55], the inhibition at 100 µM was found to be 96%.

Molecule `CC(C)/C=C(\NC(=O)C1CC1(C)C)C(=O)O` (stereo not shown) [Compound 41] had an inhibition at 100 µM of 96%.

Molecule `CC/C=C(\NC(=O)C1CC1(C)C)C(=O)O` (stereo not shown) [Compound 45] gave an inhibition at 100 µM of 98%.

The molecule `C/C=C(\NC(=O)CCCCCC)C(=O)O` [Compound 29] yielded an inhibition at 100 µM of 49%.

Molecule `C/C=C(\NC(=O)C1C(C)C1C)C(=O)O` (stereo not shown) [Compound 6] returned an inhibition at 100 µM of 83%.

In the case of `CC1(C)CC1C(=O)N/C(=C\CCC(=O)O)C(=O)O` (stereo not shown) [Compound 51], the inhibition at 100 µM was 98%.

`CC(C)CC/C=C(\NC(=O)C1CC1(C)C)C(=O)O` (stereo not shown) [Compound 63] registered an inhibition at 100 µM of 98%.

In turn, `CCCCC/C=C(\NC(=O)C1CC1(C)C)C(=O)O` (stereo not shown) [Compound 50] returned an inhibition at 100 µM of 100%.

In turn, `C/C=C(\NC(=O)CC1CCC1)C(=O)O` [Compound 9] yielded an inhibition at 100 µM of 83%.

`C/C=C(\NC(=O)CCCCCl)C(=O)O` [Compound 36, Z-2-(5-chlorovaleramido)-2-butenoic acid] displayed an inhibition at 100 µM of 64%.

`C/C=C(\NC(=O)CC1CC1)C(=O)O` [Compound 22] returned an inhibition at 100 µM of 64%.

On to `CSCC/C=C(\NC(=O)C1CC1(C)C)C(=O)O` (stereo not shown) [Compound 54], for which 100 µM produced 99% inhibition.

`CCCCCC/C=C(\NC(=O)C1CC1(C)C)C(=O)O` (stereo not shown) [Compound 56] returned an inhibition at 100 µM of 98%.

`C/C=C(\NC(=O)CCCC1CCCCC1)C(=O)O` [Compound 21]: the inhibition at 100 µM amounted to 68%.

Molecule `CC1(C)CC1C(=O)N/C(=C\Cc1ccccc1)C(=O)O` (stereo not shown) [Compound 59] yielded an inhibition at 100 µM of 98%.

Molecule `C/C=C(\NC(=O)C(CC)CCCC)C(=O)O` (stereo not shown) [Compound 30, Z-2-(2-Ethylhexanamido)-2-butenoic acid] returned an inhibition at 100 µM of 33%.

The molecule `C/C=C(\NC(=O)CCC)C(=O)O` [Compound 20, Z-2-butyramido-2-butenoic acid] registered an inhibition at 100 µM of 69%.

Consider `CC1(C)CC1C(=O)N/C(=C\CC1CCCCC1)C(=O)O` (stereo not shown) [Compound 52], for which 100 µM produced 100% inhibition.

`C/C=C(\NC(=O)CCCc1ccccc1)C(=O)O` [Compound 37] registered an inhibition at 100 µM of 72%.

With `C/C=C(\NC(=O)CCCC)C(=O)O` [Compound 23, Z-2-valeramido-2-butenoic acid], the inhibition at 100 µM turned out to be 64%.

In turn, `C/C=C(\NC(=O)CC(C)CC)C(=O)O` (stereo not shown) [Compound 11] yielded an inhibition at 100 µM of 82%.

`CC(C)C/C=C(\NC(=O)C1CC1(C)C)C(=O)O` (stereo not shown) [Compound 48] showed an inhibition at 100 µM of 97%.

As for `CCC/C=C(\NC(=O)C1CC1(C)C)C(=O)O` (stereo not shown) [Compound 47], the inhibition at 100 µM was determined as 98%.

Molecule `C/C=C(\NC(=O)CCCCCCC)C(=O)O` [Compound 19, Z-2-octanamido-2-butenoic acid] had an inhibition at 100 µM of 72%.

In the case of `C/C=C(\NC(=O)C(CCC)CCC)C(=O)O` [Compound 31, Z-2-di-n-propylacetamido-2-butenoic acid], the inhibition at 100 µM is 13%.

Molecule `C/C=C(\NC(=O)CC(C)CCOC)C(=O)O` (stereo not shown) [Compound 34] had an inhibition at 100 µM of 88%.

Regarding `C/C=C(\NC(=O)CCC1CCCC1)C(=O)O` [Compound 26], the inhibition at 100 µM amounted to 56%.

`C/C=C(\NC(=O)C1CC1(C)C(C)C)C(=O)O` (stereo not shown) [Compound 44]: the inhibition at 100 µM came out at 95%.

For `CCCCCCC/C=C(\NC(=O)C1CC1(C)C)C(=O)O` (stereo not shown) [Compound 57], at 100 µM the inhibition was 99%.

On to `CCCCC/C=C(\NC(=O)CC(C)C)C(=O)O` [Compound 39, Z-2-isovaleramido-2-octenoic acid], for which 100 µM produced 95% inhibition.

With `C/C=C(\NC(=O)C1CC1CC)C(=O)O` (stereo not shown) [Compound 43], 100 µM produced 96% inhibition.

Regarding `C/C=C(\NC(=O)C1CCCC1)C(=O)O` [Compound 24], the inhibition at 100 µM was determined as 59%.

`C/C=C(\NC(=O)C1CC1C(C)(C)C)C(=O)O` (stereo not shown) [Compound 38] showed an inhibition at 100 µM of 90%.

With `C/C=C(\NC(=O)C1CCC1)C(=O)O` [Compound 8], 100 µM produced 80% inhibition.

As for `CC1(C)CC1C(=O)N/C(=C\CCc1ccccc1)C(=O)O` (stereo not shown) [Compound 53], testing at 100 µM gave an inhibition of 96%.

Molecule `C/C=C(\NC(=O)C1CC1(C)C)C(=O)O` (single isomer, unassigned; (+)) [Compound 2a, (+)-Z-2-(2,2-dimethylcyclopropanecarboxamido)-2-butenoic acid] returned an inhibition at 100 µM of 100%.

`C/C=C(\NC(=O)C1CC1(C)CC)C(=O)O` (stereo not shown) [Compound 40] displayed an inhibition at 100 µM of 100%.

With `C/C=C(\NC(=O)C1CC1)C(=O)O` [Compound 10, Z-2-cyclopropylcarboxamido-2-butenoic acid], the inhibition at 100 µM is 97%.

Regarding `C/C=C(\NC(=O)CCC1CCCCC1)C(=O)O` [Compound 27], the inhibition at 100 µM worked out at 54%.

The same assay, now with this note: racemate resolved; dextrorotatory isomer has S-configuration.
Regarding `CCCCC/C=C(\NC(=O)C1CC1(C)C)C(=O)O` (racemic) [Z-2-(2,2-dimethylcyclopropanecarboxamido)-2-octenoic acid], the “activity of resolved isomers” value is “The activity resides in the dextrorotatory isomer”.
